# Columns and labels:
# [1] = in vitro assay (not specified) of separated enantiomers; conditions: enantiomers separated by chiral HPLC
# From the text: Compound (6) was separated by chiral HPLC: […]® OD with 85% hexane and 15% ethanol at rt. The (+)-7-(5-methyl-1H-imidazol-4-ylmethyl)-5,6,7,8-tetrahydro-quinoline (8) corresponding to the second eluting peak was active in an in vitro assay.
# [2] = molecular target: T1, Alpha 1A (Homo sapiens, UniProt P35348); assay: RSAT assay, Alpha 1A receptor; type: cell-based; conditions: for EC50: RSAT, transfected NIH-3T3 cells; for Alpha 1A (IA) intrinsic activity: ratio of maximal effect of drug to maximal effect of standard full agonist
# T1 construct: expressed in transfected cells; host or cells: NIH-3T3
# T1 sequence (P35348 1-466): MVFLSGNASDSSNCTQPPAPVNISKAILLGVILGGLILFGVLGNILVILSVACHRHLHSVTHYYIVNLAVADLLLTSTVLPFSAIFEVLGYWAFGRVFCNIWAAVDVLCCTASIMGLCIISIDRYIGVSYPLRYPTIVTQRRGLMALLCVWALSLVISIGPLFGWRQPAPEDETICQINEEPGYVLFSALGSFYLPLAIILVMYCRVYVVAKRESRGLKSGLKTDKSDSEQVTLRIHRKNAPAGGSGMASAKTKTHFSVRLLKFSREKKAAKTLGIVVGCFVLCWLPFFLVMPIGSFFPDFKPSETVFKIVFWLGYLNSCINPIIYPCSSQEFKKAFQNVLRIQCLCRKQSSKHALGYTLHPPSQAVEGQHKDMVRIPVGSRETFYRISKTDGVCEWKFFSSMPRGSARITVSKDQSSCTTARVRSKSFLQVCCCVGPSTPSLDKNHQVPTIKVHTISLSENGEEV
# Experimental: (§1) The RSAT assay measures a receptor-mediated loss of contact inhibition that results in selective proliferation of receptor-containing cells in a mixed population of confluent cells. The increase in cell number is assessed with an appropriate transfected marker gene such as […]-galactosidase, the activity of which can be easily measured in a 96-well format. Receptors that activate the G protein, Gq, elicit this response. Alpha2 receptors, which normally couple to Gi, activate the RSAT response when coexpressed with a hybrid Gq protein that has a Gi receptor recognition domain, called Gq/i5.
# (§2) NIH-3T3 cells are plated at a density of 2×10^6 cells in 15 cm dishes and maintained in Dulbecco's modified Eagle's medium supplemented with 10% calf serum. One day later, cells are cotransfected by calcium phosphate precipitation with mammalian expression plasmids encoding p-SV-β-galactosidase (5-10 μg), receptor (1-2 μg) and G protein (1-2 μg). 40 μg salmon sperm DNA may also be included in the transfection mixture. Fresh media is added on the following day and 1-2 days later, cells are harvested and frozen in 50 assay aliquots. Cells are thawed and 100 μl added to 100 μl aliquots of various concentrations of drugs in triplicate in 96-well dishes. Incubations continue 72-96 hr at 37° C. After washing with phosphate-buffered saline, β-galactosidase enzyme activity is determined by adding 200 μl of the chromogenic substrate (consisting of 3.5 mM o-nitrophenyl-β-D-galactopyranoside and 0.5% nonidet P-40 in phosphate buffered saline), incubating overnight at 30° C. and measuring optical density at 420 nm. The absorbance is a measure of enzyme activity, which depends on cell number and reflects a receptor-mediated cell proliferation. The efficacy or intrinsic activity is calculated as a ratio of the maximal effect of the drug to the maximal effect of a standard full agonist for each receptor subtype. Brimonidine, also called UK14304, the chemical structure of which is shown below, is used as the standard agonist for the alpha2A, alpha2B and alpha2C receptors. The EC50 is the concentration at which the drug effect is half of its maximal effect.
# (§3) The results of the RSAT assay with several exemplary compounds of the invention are disclosed in Table 1 above together with the chemical formulas of these exemplary compounds. EC50 values are nanomolar. NA stands for “not active” at concentrations less than 10 micromolar. IA stands for “intrinsic activity.”
# [3] = molecular target: T2, Alpha 2A (Homo sapiens, UniProt P08913); assay: RSAT assay, Alpha 2A receptor; type: cell-based; conditions: transfected NIH-3T3 cells, coexpressed Gq/i5
# T2 construct: expressed in transfected cells; host or cells: NIH-3T3
# T2 sequence (P08913 1-465): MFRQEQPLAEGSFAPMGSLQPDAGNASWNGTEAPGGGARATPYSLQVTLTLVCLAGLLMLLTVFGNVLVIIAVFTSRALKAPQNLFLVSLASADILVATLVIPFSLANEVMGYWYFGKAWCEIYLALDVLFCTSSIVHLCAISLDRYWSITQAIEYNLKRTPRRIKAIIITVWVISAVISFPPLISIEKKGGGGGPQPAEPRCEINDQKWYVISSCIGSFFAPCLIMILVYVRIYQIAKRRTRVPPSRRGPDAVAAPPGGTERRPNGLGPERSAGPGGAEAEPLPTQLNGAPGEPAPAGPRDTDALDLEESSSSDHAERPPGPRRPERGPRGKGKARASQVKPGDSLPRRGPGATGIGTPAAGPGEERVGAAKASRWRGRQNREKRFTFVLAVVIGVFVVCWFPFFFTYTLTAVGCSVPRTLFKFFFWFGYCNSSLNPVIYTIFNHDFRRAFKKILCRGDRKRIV
# Experimental: as §1
# NIH-3T3 cells are plated at a density of 2×10^6 cells in 15 cm dishes and maintained in Dulbecco's modified Eagle's medium supplemented with 10% calf serum. […] After washing with phosphate-buffered saline, β-galactosidase enzyme activity is determined by adding 200 μl of the chromogenic substrate (consisting of 3.5 mM o-nitrophenyl-β-D-galactopyranoside and 0.5% nonidet P-40 in phosphate buffered saline), incubating overnight at 30° C. and measuring optical density at 420 nm. The absorbance is a measure of enzyme activity, which depends on cell number and reflects a receptor-mediated cell proliferation. The efficacy or intrinsic activity is calculated as a ratio of the maximal effect of the drug to the maximal effect of a standard full agonist for each receptor subtype. […]
# [4] = molecular target: T3, Alpha 2B (Homo sapiens, UniProt P18089); assay: RSAT assay, Alpha 2B receptor; type: cell-based; conditions: for EC50: RSAT, transfected NIH-3T3 cells, coexpressed Gq/i5; for Alpha 2B (IA) intrinsic activity: ratio of maximal effect to that of standard full agonist brimonidine
# T3 construct: expressed in transfected cells; host or cells: NIH-3T3
# T3 sequence (P18089 1-450): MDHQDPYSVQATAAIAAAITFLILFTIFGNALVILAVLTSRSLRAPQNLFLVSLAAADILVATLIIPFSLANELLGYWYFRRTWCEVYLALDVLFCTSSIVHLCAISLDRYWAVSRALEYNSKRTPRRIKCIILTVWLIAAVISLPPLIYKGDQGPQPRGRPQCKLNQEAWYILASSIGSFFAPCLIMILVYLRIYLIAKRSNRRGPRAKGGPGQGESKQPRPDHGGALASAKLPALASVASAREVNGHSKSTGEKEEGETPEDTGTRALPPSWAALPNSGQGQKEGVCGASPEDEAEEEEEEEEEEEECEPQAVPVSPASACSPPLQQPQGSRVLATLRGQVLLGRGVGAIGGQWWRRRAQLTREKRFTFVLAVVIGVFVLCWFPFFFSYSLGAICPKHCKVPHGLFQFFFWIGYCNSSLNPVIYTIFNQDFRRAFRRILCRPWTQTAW
# Experimental: as §1, §2, §3
# [5] = molecular target: T4, Alpha 2C (Homo sapiens, UniProt P18825); assay: RSAT assay, Alpha 2C receptor; type: cell-based; conditions: for EC50: RSAT, transfected NIH-3T3 cells, coexpressed Gq/i5; for Alpha 2C (IA) intrinsic activity: ratio of maximal effect to that of standard full agonist brimonidine
# T4 construct: expressed in transfected cells; host or cells: NIH-3T3
# T4 sequence (P18825 1-462): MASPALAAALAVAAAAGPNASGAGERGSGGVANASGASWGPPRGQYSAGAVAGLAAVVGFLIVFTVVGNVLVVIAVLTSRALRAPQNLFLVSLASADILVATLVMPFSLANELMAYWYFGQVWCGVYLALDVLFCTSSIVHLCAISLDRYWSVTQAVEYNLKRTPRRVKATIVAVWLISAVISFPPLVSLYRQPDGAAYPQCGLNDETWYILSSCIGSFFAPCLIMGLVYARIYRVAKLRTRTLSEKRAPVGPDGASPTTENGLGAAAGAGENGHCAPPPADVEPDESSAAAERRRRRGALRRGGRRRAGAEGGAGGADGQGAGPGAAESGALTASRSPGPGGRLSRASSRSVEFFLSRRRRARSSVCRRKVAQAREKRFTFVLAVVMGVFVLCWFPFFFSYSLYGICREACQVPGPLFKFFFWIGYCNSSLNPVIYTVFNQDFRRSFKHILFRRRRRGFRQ
# Experimental: as §1, §2, §3
EC50 [2] [nM],Alpha 1A (IA) intrinsic activity [2],EC50 [3] [nM],EC50 [4] [nM],Alpha 2B (IA) intrinsic activity [4],EC50 [5] [nM],Alpha 2C (IA) intrinsic activity [5],SMILES,activity in an in vitro assay [1]
–,–,–,–,–,–,–,"Cc1[nH]cnc1CC1CCc2cccnc2C1 (single isomer, unassigned; (+)) [Compound 8, (+)-7-(5-methyl-1H-imidazol-4-ylmethyl)-5,6,7,8-tetrahydro-quinoline]",active
–,–,–,–,–,–,–,"Cc1[nH]cnc1CC1CCc2cccnc2C1 (single isomer, unassigned; (-)) [Compound 7, (−)-7-(5-methyl-1H-imidazol-4-ylmethyl)-5,6,7,8-tetrahydro-quinoline]",inactive
3340,0.66,> 10000,57,0.32,207,0.63,Cc1[nH]cnc1CC1CCc2cccnc2C1 (stereo not shown) [drawing 15],–
876,0.66,> 10000,37,0.7,366,0.47,Cc1[nH]cnc1CC1CCc2cccnc2C1 (stereo not shown) [drawing 16],–
